In ChEMBL document CHEMBL4118086, “Potential of PI3Kβ Inhibitors in the Treatment of Cancer and Other Diseases” (ACS Med Chem Lett, 2017):

Tests used:
[1] = target: Phosphatidylinositol 4,5-bisphosphate 3-kinase catalytic subunit gamma isoform (Homo sapiens, UniProt P48736); assay: Binding affinity to wild-type human PIK3Cgamma (S144 to A1102 residues) expressed in mammalian expression system by KINOMEScan assay
[2] = target: T1, Phosphatidylinositol 4,5-bisphosphate 3-kinase catalytic subunit beta isoform (Homo sapiens, UniProt P42338); assay: Inhibition of PI3Kbeta in human PC3 cells assessed as reduction in AKT phosphorylation at Thr308 residue measured after 60 mins by ELISA; assay type: cell-based
T1 sequence (P42338 whole entry, canonical isoform): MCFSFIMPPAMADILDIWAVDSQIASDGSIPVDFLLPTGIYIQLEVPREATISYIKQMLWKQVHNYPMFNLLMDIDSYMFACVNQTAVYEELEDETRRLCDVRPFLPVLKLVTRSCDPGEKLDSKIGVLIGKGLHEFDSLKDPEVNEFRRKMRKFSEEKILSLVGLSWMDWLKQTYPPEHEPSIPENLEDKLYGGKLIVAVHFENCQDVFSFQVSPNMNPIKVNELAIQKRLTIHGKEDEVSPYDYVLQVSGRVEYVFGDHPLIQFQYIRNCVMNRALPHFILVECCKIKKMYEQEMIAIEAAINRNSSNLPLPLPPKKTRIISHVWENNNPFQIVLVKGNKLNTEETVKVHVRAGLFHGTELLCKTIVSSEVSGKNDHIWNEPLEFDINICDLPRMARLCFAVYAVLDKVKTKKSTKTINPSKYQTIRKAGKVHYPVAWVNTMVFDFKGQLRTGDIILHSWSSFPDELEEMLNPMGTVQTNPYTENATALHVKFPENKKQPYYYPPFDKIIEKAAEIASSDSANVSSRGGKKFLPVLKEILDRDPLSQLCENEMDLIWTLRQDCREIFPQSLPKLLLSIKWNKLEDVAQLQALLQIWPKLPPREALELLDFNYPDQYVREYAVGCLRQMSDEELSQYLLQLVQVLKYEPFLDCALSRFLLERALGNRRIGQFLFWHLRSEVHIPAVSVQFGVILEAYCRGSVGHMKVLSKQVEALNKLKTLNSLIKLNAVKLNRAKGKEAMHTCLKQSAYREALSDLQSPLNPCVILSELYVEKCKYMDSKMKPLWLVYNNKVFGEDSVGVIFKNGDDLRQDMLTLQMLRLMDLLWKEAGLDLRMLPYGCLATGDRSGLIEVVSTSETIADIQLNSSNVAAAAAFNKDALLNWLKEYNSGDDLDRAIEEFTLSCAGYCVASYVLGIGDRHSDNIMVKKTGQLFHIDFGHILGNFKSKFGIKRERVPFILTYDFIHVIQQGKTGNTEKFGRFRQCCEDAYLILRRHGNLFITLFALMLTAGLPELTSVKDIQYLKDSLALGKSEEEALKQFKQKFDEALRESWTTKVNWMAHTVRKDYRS

[3] = target: T1, Phosphatidylinositol 4,5-bisphosphate 3-kinase catalytic subunit beta isoform; assay: Inhibition of PI3Kbeta in human PC3 cells assessed as reduction in AKT phosphorylation at S473 residue measured after 60 mins by ELISA; assay type: cell-based
[4] = target: Serine/threonine-protein kinase mTOR (Homo sapiens, UniProt P42345); assay: Binding affinity to wild-type human MTOR (L1382 to W2549 residues) expressed in mammalian expression system by KINOMEScan assay
[5] = target: T2, Phosphatidylinositol 4,5-bisphosphate 3-kinase catalytic subunit delta isoform (Homo sapiens, UniProt O00329); assay: Binding affinity to wild-type human PIK3Cdelta (R108 to Q1044 residues) expressed in mammalian expression system by KINOMEScan assay
T2 sequence (O00329 whole entry): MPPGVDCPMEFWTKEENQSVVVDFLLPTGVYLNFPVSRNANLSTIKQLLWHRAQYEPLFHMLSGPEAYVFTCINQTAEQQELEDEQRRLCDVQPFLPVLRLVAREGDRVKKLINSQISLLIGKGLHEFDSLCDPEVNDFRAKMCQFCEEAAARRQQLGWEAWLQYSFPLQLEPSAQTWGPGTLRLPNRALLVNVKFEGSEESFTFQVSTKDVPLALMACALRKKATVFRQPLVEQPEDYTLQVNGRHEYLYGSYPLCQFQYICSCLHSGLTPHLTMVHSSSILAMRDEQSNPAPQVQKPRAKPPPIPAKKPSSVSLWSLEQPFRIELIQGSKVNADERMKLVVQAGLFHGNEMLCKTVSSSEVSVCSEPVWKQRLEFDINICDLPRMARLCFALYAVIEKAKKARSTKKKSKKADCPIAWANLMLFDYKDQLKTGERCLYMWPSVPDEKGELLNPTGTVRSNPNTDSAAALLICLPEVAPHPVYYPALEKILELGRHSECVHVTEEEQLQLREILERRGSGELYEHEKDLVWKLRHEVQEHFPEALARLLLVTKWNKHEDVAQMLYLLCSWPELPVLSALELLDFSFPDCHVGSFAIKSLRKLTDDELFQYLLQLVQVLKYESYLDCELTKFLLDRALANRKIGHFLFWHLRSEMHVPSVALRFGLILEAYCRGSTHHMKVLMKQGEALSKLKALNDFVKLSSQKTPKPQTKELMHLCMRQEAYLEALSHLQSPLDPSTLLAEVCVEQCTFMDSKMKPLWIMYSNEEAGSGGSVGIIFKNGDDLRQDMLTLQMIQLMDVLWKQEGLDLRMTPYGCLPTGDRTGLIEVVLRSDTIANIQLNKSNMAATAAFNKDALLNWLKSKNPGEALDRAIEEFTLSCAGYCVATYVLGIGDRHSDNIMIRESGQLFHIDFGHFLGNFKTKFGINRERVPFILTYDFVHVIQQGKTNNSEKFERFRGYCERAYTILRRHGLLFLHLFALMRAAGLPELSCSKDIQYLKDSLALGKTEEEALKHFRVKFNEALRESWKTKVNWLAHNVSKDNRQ

[6] = target: T1, Phosphatidylinositol 4,5-bisphosphate 3-kinase catalytic subunit beta isoform; assay: Binding affinity to wild-type human PIK3Cbeta (P118 to S1070 residues) expressed in mammalian expression system by KINOMEScan assay
[7] = target: Phosphatidylinositol 4,5-bisphosphate 3-kinase catalytic subunit alpha isoform (Homo sapiens, UniProt P42336); assay: Binding affinity to wild-type human PIK3Calpha (R108 to N1068 residues) expressed in mammalian expression system by KINOMEScan assay
Phosphatidylinositol 4,5-bisphosphate 3-kinase catalytic subunit alpha isoform, sequence (P42336 whole entry, the tested form may be a part, canonical isoform): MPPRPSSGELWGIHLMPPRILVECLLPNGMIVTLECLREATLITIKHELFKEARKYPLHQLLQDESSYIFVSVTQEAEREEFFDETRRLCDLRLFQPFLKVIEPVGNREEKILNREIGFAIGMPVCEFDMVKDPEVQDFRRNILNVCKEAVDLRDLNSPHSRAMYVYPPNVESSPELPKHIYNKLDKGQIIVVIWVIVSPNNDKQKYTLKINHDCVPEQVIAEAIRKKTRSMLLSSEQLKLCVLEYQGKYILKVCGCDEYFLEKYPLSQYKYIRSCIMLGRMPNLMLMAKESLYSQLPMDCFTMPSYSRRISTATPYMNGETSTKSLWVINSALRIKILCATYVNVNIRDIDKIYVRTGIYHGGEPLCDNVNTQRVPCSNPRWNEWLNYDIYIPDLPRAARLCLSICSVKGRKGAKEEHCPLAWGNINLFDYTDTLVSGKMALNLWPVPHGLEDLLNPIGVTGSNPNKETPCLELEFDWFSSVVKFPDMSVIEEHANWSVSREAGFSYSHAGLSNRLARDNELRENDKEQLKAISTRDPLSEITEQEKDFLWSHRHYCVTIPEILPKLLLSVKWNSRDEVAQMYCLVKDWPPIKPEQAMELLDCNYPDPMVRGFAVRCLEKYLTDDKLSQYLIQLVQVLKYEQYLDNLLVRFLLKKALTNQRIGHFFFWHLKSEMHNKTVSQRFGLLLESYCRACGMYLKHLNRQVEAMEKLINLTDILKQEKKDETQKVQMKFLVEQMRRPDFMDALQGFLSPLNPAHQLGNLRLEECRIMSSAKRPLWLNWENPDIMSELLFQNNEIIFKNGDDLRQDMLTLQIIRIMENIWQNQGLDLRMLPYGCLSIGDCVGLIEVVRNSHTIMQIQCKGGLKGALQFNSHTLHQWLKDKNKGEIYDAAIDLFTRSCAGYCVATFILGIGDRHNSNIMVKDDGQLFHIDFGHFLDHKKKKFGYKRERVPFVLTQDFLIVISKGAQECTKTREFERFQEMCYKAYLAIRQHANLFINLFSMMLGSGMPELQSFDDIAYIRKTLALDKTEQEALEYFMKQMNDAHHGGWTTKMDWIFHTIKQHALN

Phosphatidylinositol 4,5-bisphosphate 3-kinase catalytic subunit gamma isoform, sequence (P48736 whole entry, the tested form may be a part, canonical isoform): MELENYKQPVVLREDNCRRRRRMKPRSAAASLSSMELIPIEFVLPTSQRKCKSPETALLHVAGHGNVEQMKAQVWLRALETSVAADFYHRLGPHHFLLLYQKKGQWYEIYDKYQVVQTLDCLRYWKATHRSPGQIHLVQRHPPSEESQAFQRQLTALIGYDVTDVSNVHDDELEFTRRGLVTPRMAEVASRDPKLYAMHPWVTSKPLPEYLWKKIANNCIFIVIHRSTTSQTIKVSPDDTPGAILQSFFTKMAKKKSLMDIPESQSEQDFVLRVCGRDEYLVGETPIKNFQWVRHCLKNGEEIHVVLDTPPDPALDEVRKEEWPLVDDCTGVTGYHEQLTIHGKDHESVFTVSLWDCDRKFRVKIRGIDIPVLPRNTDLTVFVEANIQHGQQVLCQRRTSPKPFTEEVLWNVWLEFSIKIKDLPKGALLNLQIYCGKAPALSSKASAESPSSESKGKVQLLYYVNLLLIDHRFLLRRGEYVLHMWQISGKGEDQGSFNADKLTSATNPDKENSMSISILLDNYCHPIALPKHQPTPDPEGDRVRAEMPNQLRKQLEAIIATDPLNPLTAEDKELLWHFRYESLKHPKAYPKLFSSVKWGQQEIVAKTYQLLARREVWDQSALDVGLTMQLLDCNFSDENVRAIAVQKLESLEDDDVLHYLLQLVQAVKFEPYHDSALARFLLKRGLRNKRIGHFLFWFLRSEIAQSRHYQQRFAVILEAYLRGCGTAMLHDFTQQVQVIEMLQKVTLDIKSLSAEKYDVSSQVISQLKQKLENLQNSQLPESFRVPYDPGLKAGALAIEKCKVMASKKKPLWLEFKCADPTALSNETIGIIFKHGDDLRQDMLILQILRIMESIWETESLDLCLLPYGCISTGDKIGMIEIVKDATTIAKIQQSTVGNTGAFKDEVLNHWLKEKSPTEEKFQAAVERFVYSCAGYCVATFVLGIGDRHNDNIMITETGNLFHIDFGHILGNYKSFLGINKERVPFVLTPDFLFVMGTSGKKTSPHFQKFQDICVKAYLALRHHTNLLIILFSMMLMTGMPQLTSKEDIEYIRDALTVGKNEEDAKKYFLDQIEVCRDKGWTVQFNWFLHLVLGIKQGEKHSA

| Compound | Kd [1] [nM] | IC50 [2] [nM] | IC50 [3] [nM] | Kd [4] [nM] | Kd [5] [nM] | Kd [6] [nM] | Kd [7] [nM] |
| --- | --- | --- | --- | --- | --- | --- | --- |
| C[C@@H](Nc1cccc(F)c1)c1cc(C(=O)NCCO)cc2ncc(N3CCOCC3)nc12 | 3410 | 44 | 49 | 17100 | 324 | 3 | 1100 |
| C[C@@H](Nc1cc(F)cc(F)c1)c1cc(C(=O)NCCN(C)C)cc2ncc(N3CCOCC3)nc12 | – | 2 | 2 | – | – | – | – |
| C[C@H](Nc1cc(F)cc(F)c1)c1cc(C(=O)NCCN(C)C)cc2ncc(N3CCOCC3)nc12 | – | 148 | 331 | > 30200 | – | – | – |
| C[C@H](Nc1cccc(F)c1)c1cc(C(=O)NCCO)cc2ncc(N3CCOCC3)nc12 | – | > 513 | > 513 | > 30200 | – | – | – |
| CN(C)C(=O)c1cc([C@H]2CCCN2c2cc(F)cc(F)c2)c2nc(N3CCOCC3)cnc2c1 | 313 | 3 | 2 | 28200 | 15 | 0.3 | 34 |

Continued, in another order:

| Kd [1] [nM] | IC50 [2] [nM] | IC50 [3] [nM] | Kd [4] [nM] | Compound | Kd [5] [nM] | Kd [6] [nM] | Kd [7] [nM] |
| --- | --- | --- | --- | --- | --- | --- | --- |
| > 30200 | > 513 | > 513 | > 30200 | CN(C)C(=O)c1cc([C@@H]2CCCN2c2cc(F)cc(F)c2)c2nc(N3CCOCC3)cnc2c1 | – | – | – |
| 6610 | 9 | 9 | 17800 | Cc1c(F)cccc1NCc1cc(C(=O)NCCN(C)C)cc2ncc(N3CCOCC3)nc12 | 324 | 0.2 | 1910 |
| 214 | 5 | 7 | > 30200 | C[C@@H]1CN(C(=O)c2cc(C3CCCN3c3cc(F)cc(F)c3)c3nc(N4CCOCC4)cnc3c2)C[C@H](C)N1 (mixture of isomers) | 7 | 0.2 | 14 |
| – | 3 | 6 | > 30200 | CC(Nc1cc(F)cc(F)c1)c1cc(C(=O)NCCN(C)C)cc2ncc(N3CCOCC3)nc12 (racemic) | – | – | – |
| – | 6 | 7 | – | CNCCNC(=O)c1cc(C(C)Nc2cccc(F)c2)c2nc(N3CCOCC3)cnc2c1 (racemic) | – | – | – |
| – | 1.35 | 4 | > 30200 | CN(C)C(=O)c1cc(C2CCCN2c2cc(F)cc(F)c2)c2nc(N3CCOCC3)cnc2c1 (racemic) | – | – | – |
